Experimental data taken from US8202856B2 (Merck Serono SA, priority 2007, dated 2012).
Structures can show the parent of a compound that is named as a salt.

Biological target: S1P1 receptor (Homo sapiens, UniProt P21453)
Assay: 35S-GTPγS binding, membranes from CHO cells expressing S1P1
Type: biochemical
Conditions: CHO cell membranes expressing S1P1
Protocol: Receptor binding assay: Membranes were prepared from CHO cells expressing S1P1 or S1P3 for use in ligand and 35S-GTPTS binding studies. Cells were suspended in 50 mM TRIS, pH 7.4, 2 mM EDTA, 250 mM Sucrose (buffer A) and 1× Complete protease inhibitor cocktail (Roche), and disrupted at 4° C. by nitrogen decompression using a cell disruption bomb (Parr Instrument). Following centrifugation at 1000 RPM for 10 min at 4° C., the supernatant was suspended in buffer A and centrifuged again at 19000 RPM for 60 min at 4° C. The pellet was then suspended in 10 mM HEPES, pH 7.4, 1 mM EDTA, 250 mM Sucrose (Buffer B), and 1× Complete EDTA-free protease inhibitor cocktail and homogenized using a potter. Membranes were flash frozen in liquid nitrogen and stored at −80° C. [33P]sphingosine 1-phosphate (3000 Ci/mmol; American Radiolabeled Chemicals, Inc.) was added to test compounds in DMSO. Membranes and WGA SPA beads (GE Healthcare) were added to give a final volume of 100 μl in 96-well plates with assay concentrations of […] [33P]sphingosine 1-phosphate (respectively for S1P1 or S1P3), 50 mM HEPES, pH 7.5, 5 mM MgCl2, 100 mM NaCl, 0.4% fatty acid-free BSA, 1-5 μg/well of proteins and 100 μg/well of WGA SPA beads. Binding was performed for 60 min at room temperature on a shaker and bound radioactivity was measured on a PerkinElmer 1450 MicroBeta counter. Specific binding was calculated by subtracting remaining radioactivity in the presence of 1000-fold excess of unlabeled S1P. Binding data were analyzed using the GraphPad Prism program.
Measurements of ^35S-GTPγS Binding: Membranes (1 to 10 μg protein) prepared as described above, were incubated in 96-well Scintiplates (PerkinElmer) with test compounds diluted in DMSO, in 180 μl of 20 mM HEPES, pH 7.4, 10 mM MgCl2, 2 μg/well Saponin, 0.2% fatty acid free BSA (Assay buffer), 140 mM NaCl and 1.7 μM GDP. The assay was initiated with the addition of 20 μl of 1.5 nM [35S]-GTPγS (1100 Ci/mmol; GE Healthcare) in assay buffer. After 60 min incubation at 30° C. on a shaker, plates were centrifuged for 10 min at 2000 RPM. Supernatant was discarded and membrane bound radioactivity was measured on a PerkinElmer 1450 MicroBeta counter. Triplicate samples were averaged and expressed as response relative to S1P activation in absence of compound (n=2).

Chain of S1P1 receptor (P21453 whole entry): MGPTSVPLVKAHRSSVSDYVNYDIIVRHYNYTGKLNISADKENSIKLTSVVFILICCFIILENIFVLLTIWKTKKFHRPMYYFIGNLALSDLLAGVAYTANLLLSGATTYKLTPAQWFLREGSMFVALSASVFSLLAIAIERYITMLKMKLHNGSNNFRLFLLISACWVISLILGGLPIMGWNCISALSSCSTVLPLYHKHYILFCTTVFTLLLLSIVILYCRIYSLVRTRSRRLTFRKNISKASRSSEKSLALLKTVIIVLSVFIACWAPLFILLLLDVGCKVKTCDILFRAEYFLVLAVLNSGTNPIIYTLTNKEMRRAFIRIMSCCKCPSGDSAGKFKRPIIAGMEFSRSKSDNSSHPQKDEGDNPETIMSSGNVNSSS

Cc1ccc(-c2noc(-c3nnn(-c4ccccc4F)c3-c3ccncc3)n2)cc1 [Example 107, 4-{1-(2-fluorophenyl)-4-[3-(4-methylphenyl)-1,2,4-oxadiazol-5-yl]-1H-1,2,3-triazol-5-yl}pyridine]
EC50: 49 nM

COCc1c(-c2nc(-c3ccc(S(N)(=O)=O)cc3)no2)nnn1-c1ccccc1F [Example 76, 4-{5-[1-(2-fluorophenyl)-5-(methoxymethyl)-1H-1,2,3-triazol-4-yl]-1,2,4-oxadiazol-3-yl}benzenesulfonamide]
EC50: 583 nM

Fc1ccccc1-n1nnc(-c2nc(-c3ccoc3)no2)c1-c1ccncc1 [Example 88, 4-{1-(2-fluorophenyl)-4-[3-(3-furyl)-1,2,4-oxadiazol-5-yl]-1H-1,2,3-triazol-5-yl}pyridine]
EC50: 945 nM

Fc1ccccc1-n1nnc(-c2nc(-c3cccc(C(F)(F)F)c3)no2)c1CN1CCOCC1 [Example 151, 4-[(1-(2-fluorophenyl)-4-{3-[3-(trifluoromethyl)phenyl]-1,2,4-oxadiazol-5-yl}-1H-1,2,3-triazol-5-yl)methyl]morpholine]
EC50: 340 nM

Fc1ccccc1-n1nnc(-c2nc(-c3ccc(C(F)(F)F)cc3)no2)c1-c1ccncc1 [Example 109, 4-(1-(2-fluorophenyl)-4-{3-[4-(trifluoromethyl)phenyl]-1,2,4-oxadiazol-5-yl}-1H-1,2,3-triazol-5-yl)pyridine]
EC50: 402 nM

Fc1ccccc1-n1nnc(-c2nc(-c3cccc(CN4CCC4)c3)no2)c1-c1ccncc1 [Example 148, 4-[4-{3-[3-(azetidin-1-ylmethyl)phenyl]-1,2,4-oxadiazol-5-yl}-1-(2-fluorophenyl)-1H-1,2,3-triazol-5-yl]pyridine formate]
EC50: 508 nM

Fc1ccccc1-n1nnc(-c2nc(-c3cccnc3)no2)c1C1CCCC1 [Example 79, 3-{5-[5-cyclopentyl-1-(2-fluorophenyl)-1H-1,2,3-triazol-4-yl]-1,2,4-oxadiazol-3-yl}pyridine]
EC50: 230 nM

OC1CN(Cc2ccc(-c3noc(-c4nnn(-c5ccccc5F)c4-c4ccncc4)n3)cc2)C1 [Example 135, 1-(4-{5-[1-(2-fluorophenyl)-5-pyridin-4-yl-1H-1,2,3-triazol-4-yl]-1,2,4-oxadiazol-3-yl}benzyl)azetidin-3-ol]
EC50: 18 nM

NC(=O)c1ccc(-c2noc(-c3nnn(-c4ccccc4F)c3-c3ccncc3)n2)cc1 [Example 73, 4-{5-[1-(2-fluorophenyl)-5-pyridin-4-yl-1H-1,2,3-triazol-4-yl]-1,2,4-oxadiazol-3-yl}benzamide]
EC50: 49 nM

Fc1ccccc1-n1nnc(-c2nc(-c3cccc(Br)c3)no2)c1-c1ccncc1 [Example 100, 4-[4-[3-(3-bromophenyl)-1,2,4-oxadiazol-5-yl]-1-(2-fluorophenyl)-1H-1,2,3-triazol-5-yl]pyridine]
EC50: 18 nM

O=C(O)[C@H]1CC[C@@H](NCc2ccc(-c3noc(-c4nnn(-c5ccccc5F)c4-c4ccncc4)n3)cc2)C1 [Example 169, (1S, 3R)-3-(4-(5-(1-(2-fluorophenyl)-5-(pyridin-4-yl)-1H-1,2,3-triazol-4-yl)-1,2,4-oxadiazol-3-yl)benzylamino)cyclopentanecarboxylic acid]
EC50: 8 nM

O=C(O)c1ccc(-c2noc(-c3nnn(-c4ccccc4F)c3-c3ccccc3)n2)cc1 [Example 24, 4-{5-[1-(2-Fluorophenyl)-5-phenyl-1H-1,2,3-triazole-4-yl]-1,2,4-oxadiazole-3-yl}benzoic acid]
EC50: 1840 nM

COc1ccc(-c2noc(-c3nnn(-c4ccccc4F)c3-c3ccccn3)n2)cc1 [Example 57, 2-{1-(2-fluorophenyl)-4-[3-(4-methoxyphenyl)-1,2,4-oxadiazol-5-yl]-1H-1,2,3-triazol-5-yl}pyridine]
EC50: 959 nM

COCCc1c(-c2nc(-c3cc(F)ccc3F)no2)nnn1-c1ccccc1F [Example 44, 3-(2,5-difluorophenyl)-5-[1-(2-fluorophenyl)-5-(2-methoxyethyl)-1H-1,2,3-triazol-4-yl]-1,2,4-oxadiazole]
EC50: 53 nM

O=C(O)C1(NCc2ccc(-c3noc(-c4nnn(-c5ccccc5F)c4-c4ccncc4)n3)cc2)CC1 [Example 162, 1-(4-(5-(1-(2-fluorophenyl)-5-(pyridin-4-yl)-1H-1,2,3-triazol-4-yl)-1,2,4-oxadiazol-3-yl)benzylamino)cyclopropanecarboxylic acid]
EC50: 211 nM

O=C(O)c1ccc(-c2noc(-c3nnn(-c4ccccc4F)c3-c3ccccc3)n2)cc1F [Example 23, 2-Fluoro-4-{5-[1-(2-fluorophenyl)-5-phenyl-1H-1,2,3-triazole-4-yl]-1,2,4-oxadiazole-3-yl}benzoic acid]
EC50: 646 nM

Fc1ccccc1-n1nnc(-c2nc(-c3cccc(C(F)(F)F)c3)no2)c1-c1ccncc1 [Example 103, 4-(1-(2-fluorophenyl)-4-{3-[3-(trifluoromethyl)phenyl]-1,2,4-oxadiazol-5-yl}-1H-1,2,3-triazol-5-yl)pyridine]
EC50: 17 nM

Fc1ccc(Br)c(-c2noc(-c3nnn(-c4ccccc4F)c3-c3ccncc3)n2)c1 [Example 149, 4-[4-[3-(2-bromo-5-fluorophenyl)-1,2,4-oxadiazol-5-yl]-1-(2-fluorophenyl)-1H-1,2,3-triazol-5-yl]pyridine]
EC50: 39 nM

Fc1ccccc1-n1nnc(-c2nc(-c3ccc4c(c3)CCN4)no2)c1-c1ccncc1 [Example 156, 5-{5-[1-(2-fluorophenyl)-5-pyridin-4-yl-1H-1,2,3-triazol-4-yl]-1,2,4-oxadiazol-3-yl}indoline hydrochloride]
EC50: 27 nM

CC(=O)N1CCC(c2noc(-c3nnn(-c4ccccc4F)c3-c3ccncc3)n2)CC1 [Example 55, 4-[4-[3-(1-acetylpiperidin-4-yl)-1,2,4-oxadiazol-5-yl]-1-(2-fluorophenyl)-1H-1,2,3-triazol-5-yl]pyridine]
EC50: 1420 nM

Fc1ccccc1-n1nnc(-c2nc(-c3cccnc3)no2)c1C1CCCO1 (centres unmarked) [Example 54]
EC50: 953 nM

COCCNCc1cccc(-c2noc(-c3nnn(-c4ccccc4F)c3-c3ccncc3)n2)c1 [Example 147, N-(3-{5-[1-(2-fluorophenyl)-5-pyridin-4-yl-1H-1,2,3-triazol-4-yl]-1,2,4-oxadiazol-3-yl}benzyl)-2-methoxyethanamine]
EC50: 577 nM

Fc1ccc(F)c(-c2noc(-c3nnn(-c4ccccc4F)c3C3CCCO3)n2)c1 (centres unmarked) [Example 71, 3-(2,5-difluorophenyl)-5-[1-(2-fluorophenyl)-5-(tetrahydrofuran-2-yl)-1H-1,2,3-triazol-4-yl]-1,2,4-oxadiazole]
EC50: 176 nM

Fc1ccccc1-n1nnc(-c2nc(-c3cnccn3)no2)c1-c1ccncc1 [Example 119, 2-{5-[1-(2-fluorophenyl)-5-pyridin-4-yl-1H-1,2,3-triazol-4-yl]-1,2,4-oxadiazol-3-yl}pyrazine]
EC50: 1260 nM

CC(C)NCc1ccc(-c2noc(-c3nnn(-c4ccccc4F)c3-c3ccncc3)n2)cc1 [Example 165, N-(4-{5-[1-(2-fluorophenyl)-5-pyridin-4-yl-1H-1,2,3-triazol-4-yl]-1,2,4-oxadiazol-3-yl}benzyl)propan-2-amine]
EC50: 17 nM

Fc1ccccc1-n1nnc(-c2nc(-c3ccc(Cn4cncn4)cc3)no2)c1-c1ccncc1 [Example 172, 4-(1-(2-fluorophenyl)-4-{3-[4-(1H-1,2,4-triazol-1-ylmethyl)phenyl]-1,2,4-oxadiazol-5-yl}-1H-1,2,3-triazol-5-yl)pyridine]
EC50: 5 nM

CS(=O)(=O)NC1CCN(Cc2ccc(-c3noc(-c4nnn(-c5ccccc5F)c4-c4ccncc4)n3)cc2)CC1 [Example 146, N-[1-(4-{5-[1-(2-fluorophenyl)-5-pyridin-4-yl-1H-1,2,3-triazol-4-yl]-1,2,4-oxadiazol-3-yl}benzyl)piperidin-4-yl]methanesulfonamide]
EC50: 360 nM

OCC1CN(Cc2ccc(-c3noc(-c4nnn(-c5ccccc5F)c4-c4ccncc4)n3)cc2)CCO1 (centres unmarked) [Example 143, [4-(4-{5-[1-(2-fluorophenyl)-5-pyridin-4-yl-1H-1,2,3-triazol-4-yl]-1,2,4-oxadiazol-3-yl}benzyl)morpholin-2-yl]methanol]
EC50: 118 nM

COCCN(C)Cc1ccc(-c2noc(-c3nnn(-c4ccccc4F)c3-c3ccncc3)n2)cc1 [Example 166, N-(4-(5-(1-(2-fluorophenyl)-5-(pyridin-4-yl)-1H-1,2,3-triazol-4-yl)-1,2,4-oxadiazol-3-yl)benzyl)-2-methoxy-N-methylethanamine]
EC50: 218 nM
